Results on 14 compounds are retold here after patent publication US9884863B2, “STAT3 inhibitor” (Board of Regents, The University of Texas System, priority 2013, dated 2018).

Molecules are shown by their SMILES. Like-named read-outs stand apart in the source and are kept apart here.

Assay type in all cases: cell-based, human
The subject of one experiment is MDA-MB-231. As to the kind of experiment: MTS cell proliferation assay, MDA-MB-231. As to conditions: Homo sapiens, MDA-MB-231, >10 = no effect. As to the method: (§1) Cancer cells (breast cancer cell lines MCF-7, MDA-MB-361, SKBR3 and MDA-MB-231, pancreatic cancer cell lines AsPC-1. BxPC3 and Panc-1) were seeded in 96-well plates at a density of 1000-2000 cells/well and treated with DMSO, 0.01, 0.1, 1, 5, 10, and 100 mM of STAT3 individual inhibitors for 72 hrs. Proliferation was measured by treating cells with the 3-(4,5-dimethylthiazol-2-yl)-5-(3-carboxymethoxyphenyl)-2-(4-sulfophenyl)-2H-tetrazolium) (MTS) in a CellTiter 96t AQueous Non-Radioactive Cell Proliferation Assay kit from Promega, Madison, Wis., USA). Absorbance of all wells was determined by measuring OD at 550 nm after 1 hr incubation at 37° C. on a 96-well iMark™ Microplate Absorbance Reader (BioRad, Hercules, Calif.).
In Vitro Determination of Effects of Synthesized Compounds on Cancer Cell Proliferation. Cancer cells (breast cancer cell lines MCF-7 and MDA-MB-231, pancreatic cancer cell lines AsPC-1 and Panc-1) were seeded in 96-well plates at a density of 2×10^3 cells/well and treated with DMSO, 0.01, 0.1, 1, 5, 10, and 100 μM of individual STAT3 inhibitors for 72 h. Proliferation was measured by treating cells with the 3-(4,5-dimethylthiazol-2-yl)-5-(3-carboxymethoxyphenyl)-2-(4-sulfophenyl)-2H-tetrazolium) (MTS) in a CellTiter 96t Aqueous Non-Radioactive Cell Proliferation Assay kit (Promega, Madison, Wis., USA). Absorbance of all wells was determined by measuring OD at 550 nm after 1 h incubation at 37° C. on a 96-well iMark™ Microplate Absorbance Reader (BioRad, Hercules, Calif.). Each individual compound was tested in quadruplicate wells for each concentration. […]

In the next experiment the test system is AsPC1. Kind of experiment: MTS cell proliferation assay, AsPC1. As to conditions: Homo sapiens, ASPC1. The method, then:
as §1, with “Calif.). Each individual compound was tested in quadruplicate wells for each concentration, and the results were reported as mean absorption±s.e.” for “Calif.).”
(§2) In Vitro Determination of Effects of Synthesized Compounds on Cancer Cell Proliferation. Cancer cells (breast cancer cell lines MCF-7 and MDA-MB-231, pancreatic cancer cell lines AsPC-1 and Panc-1) were seeded in 96-well plates at a density of 2×10^3 cells/well and treated with DMSO, 0.01, 0.1, 1, 5, 10, and 100 μM of individual STAT3 inhibitors for 72 h. Proliferation was measured by treating cells with the 3-(4,5-dimethylthiazol-2-yl)-5-(3-carboxymethoxyphenyl)-2-(4-sulfophenyl)-2H-tetrazolium) (MTS) in a CellTiter 96t Aqueous Non-Radioactive Cell Proliferation Assay kit (Promega, Madison, Wis., USA). Absorbance of all wells was determined by measuring OD at 550 nm after 1 h incubation at 37° C. on a 96-well iMark™ Microplate Absorbance Reader (BioRad, Hercules, Calif.). Each individual compound was tested in quadruplicate wells for each concentration.
In general terms: Formazan colour is commonly taken as a measure of viable cells.

The next experiment has as its system Panc-1. As to the kind of experiment: MTS cell proliferation assay, Panc-1. The settings on record: Homo sapiens, PANC-1. As to the method:
as §1, with “Calif.). Each individual compound was tested in quadruplicate wells for each concentration, and the results were reported as mean absorption±s.e.” for “Calif.).”
as §2

The next experiment concerns MCF-7. Kind of experiment: MTS cell proliferation assay, MCF-7. The settings on record: for IC50: Homo sapiens; for inhibition on breast cancer cell proliferation (FIG. 1): MCF-7, 48 hr, μM concentrations. As to the method: as §1, with “BxPC3 and Panc-1) were seeded in 96-well plates at a density of 1000-2000 cells/well and treated with DMSO, 0.01, 0.1, 1, 5, 10, and 100 mM of STAT3 individual inhibitors for 72 hrs.” left out, “Calif.). Each individual compound was tested in quadruplicate wells for each concentration, and the results were reported as mean absorption±s.e.” for “Calif.).”
In Vitro Determination of Effects of Synthesized Compounds on Cancer Cell Proliferation. Cancer cells (breast cancer cell lines MCF-7 and MDA-MB-231, pancreatic cancer cell lines AsPC-1 and Panc-1) were […], 0.01, 0.1, 1, 5, 10, […] Proliferation was measured by treating cells with the 3-(4,5-dimethylthiazol-2-yl)-5-(3-carboxymethoxyphenyl)-2-(4-sulfophenyl)-2H-tetrazolium) (MTS) in a CellTiter 96t Aqueous Non-Radioactive Cell Proliferation Assay kit (Promega, Madison, Wis., USA). Absorbance of all wells was determined by measuring OD at 550 nm after 1 h incubation at 37° C. on a 96-well iMark™ Microplate Absorbance Reader (BioRad, Hercules, Calif.). Each individual compound was tested in quadruplicate wells for each concentration.

The mark [1] stands for this setting: ER-negative breast cancer, 72 hrs, read-out: IC50 MDA-MB-231 (Table 1).
The mark [2] stands for this setting: pancreatic cancer, 72 hrs, >10 = no effect, read-out: IC50 AsPC1 (Table 1).
The mark [3] stands for this setting: pancreatic cancer, 72 hrs, >10 = no effect, read-out: IC50 Panc-1 (Table 1).
Setting [4] is: MCF7, 72 h, read-out: IC50 MCF-7 (Table 1).
[5] abbreviates: Example 4 numbering, 72 h, read-out: IC50 MDA-MB-231 (Table 4).
Setting [6] is: Example 4 numbering, 72 h, >10 = no effect, read-out: IC50 AsPC1 (Table 4).
Setting [7] is: Example 4 numbering, 72 h, >10 = no effect, read-out: IC50 Panc-1 (Table 4).
Where [8] appears, read: MCF7, Example 4 numbering, 72 h, >10 = no effect, read-out: IC50 MCF-7 (Table 4).
[9] abbreviates: Table 2 numbering 1-14, read-out: IC50 MDA-MB-231 (Table 2).
[10] abbreviates: Table 2 numbering 1-14, read-out: IC50 AsPC1 (Table 2).
Setting [11] is: Table 2 numbering 1-14, read-out: IC50 Panc-1 (Table 2).
The mark [12] stands for this setting: MCF7, Table 2 numbering 1-14, >10 = no effect, read-out: IC50 MCF-7 (Table 2).

By IC50 is commonly meant the concentration at which inhibition is half-maximal. For the compound `NCCCOc1ccc(Cl)cc1C(=O)Nc1ccc2c(c1)S(=O)(=O)C=C2` [HJC-4-16, 2-(3-Aminopropoxy)-5-chloro-N-(1,1-dioxo-1H-1λ^6-benzo[b]thiophen-6-yl)benzamide], the IC50 in the experiment on MDA-MB-231 (setting [1]) came to 1970 nM; with AsPC1 (setting [2]), 270 nM; in the experiment on Panc-1 (setting [3]), 1880 nM; in the experiment with MCF-7 (setting [4]), 1760 nM. Moreover, the “inhibition on breast cancer cell proliferation (FIG. 1)” value (“inhibition” for short) with MCF-7 is “significant inhibition”.
Consider `O=C(Nc1ccc2c(c1)S(=O)(=O)C=C2)c1ccnc(-c2ccccc2)c1` [HJC-4-30, N-(1,1-Dioxo-1H-1λ^6-benzo[b]thiophen-6-yl)-2-phenyl-isonicotinamide], for which the IC50 in the experiment with MDA-MB-231 (setting [1]) turned out to be 1850 nM; in the experiment on AsPC1 (setting [2]), 1300 nM; in the experiment with Panc-1 (setting [3]), 3350 nM; in the experiment with MCF-7 (setting [4]), 3780 nM. Also, the “inhibition” value in the experiment on MCF-7 is listed as “significant inhibition”.
For `O=C(Nc1ccc2c(c1)S(=O)(=O)C=C2)c1cc(Cl)ccc1O` [Compd 12], the IC50 worked out at 1640 nM with MDA-MB-231 (setting [5]), 1920 nM with AsPC1 (setting [6]), 2340 nM with Panc-1 (setting [7]) and 910 nM in the experiment on MCF-7 (setting [8]).
In the case of `Cc1ccc(S(=O)(=O)Nc2ccc3c(c2)S(=O)(=O)C=C3)cc1` [HJC-3-70, N-(1,1-Dioxo-1H-1λ^6-benzo[b]thiophen-6-yl)-4-methylbenzenesulfonamide], the IC50 in the experiment with MDA-MB-231 (setting [1]) worked out at 2660 nM; in the experiment with AsPC1 (setting [2]) it was 1920 nM; in the experiment on Panc-1 (setting [3]) it was 2890 nM; in the experiment on MCF-7 (setting [4]), 3240 nM.
Regarding `O=C(Nc1ccc2c(c1)S(=O)(=O)C=C2)c1cc(Cl)ccc1O` [Compound 1], the IC50 stood at 1640 nM with MDA-MB-231 (setting [9]), 1920 nM in the experiment with AsPC1 (setting [10]), 2340 nM in the experiment with Panc-1 (setting [11]) and 910 nM in the experiment with MCF-7 (setting [12]).
On to `N#C/C(=C\c1cccc(Br)n1)C(=O)Nc1ccc2c(c1)S(=O)(=O)C=C2` [HJC-3-71, 3-(6-Bromo-pyridin-2-yl)-2-cyano-N-(1,1-dioxo-1H-1λ^6-benzo[b]thiophen-6-yl)-acrylamide], for which the IC50 in the experiment on MDA-MB-231 (setting [1]) is 1530 nM; with AsPC1 (setting [2]), 1540 nM; in the experiment with Panc-1 (setting [3]), 1640 nM; in the experiment on MCF-7 (setting [4]), 3310 nM. Moreover, the “inhibition” value in the experiment with MCF-7 is “significant inhibition”.
Turning to `NCCCCCOc1ccc(Cl)cc1C(=O)Nc1ccc([N+](=O)[O-])cc1Cl` [HJC-3-89, 2-(5-Amino-pentyloxy)-5-chloro-N-(2-chloro-4-nitro-phenyl)benzamide], the IC50 with MDA-MB-231 (setting [1]) stood at 3100 nM; in the experiment with AsPC1 (setting [2]), 2080 nM; in the experiment on Panc-1 (setting [3]), 4670 nM; in the experiment on MCF-7 (setting [4]) it was 3490 nM. For the same compound, the “inhibition” value in the experiment with MCF-7 is “significant inhibition”.
Regarding `COC1CS(=O)(=O)c2cc(NC(=O)c3cc(Cl)ccc3O)ccc21` (stereo not drawn) [Compound 14], the IC50 with MDA-MB-231 (setting [9]) is 7050 nM; with AsPC1 (setting [10]) it was 8460 nM; in the experiment with Panc-1 (setting [11]) it was 8390 nM; with MCF-7 (setting [12]) it was 6070 nM.
For `O=C(Nc1ccc2c(c1)S(=O)(=O)C=C2)c1cc(Cl)ccc1OCCN1CCNCC1` [HJC-4-13, 5-Chloro-N-(1,1-dioxo-1H-1λ^6-benzo[b]thiophen-6-yl)-2-(2-piperazin-1-yl-ethoxy) benzamide], the IC50 was 3290 nM in the experiment with MDA-MB-231 (setting [1]), 1870 nM with AsPC1 (setting [2]), 3690 nM in the experiment on Panc-1 (setting [3]) and 2560 nM in the experiment with MCF-7 (setting [4]).
Turning to `CNCCOc1ccc(Cl)cc1C(=O)Nc1ccc2c(c1)S(=O)(=O)C=C2` [HJC-4-28, 5-Chloro-N-(1,1-dioxo-1H-1λ^6-benzo[b]thiophen-6-yl)-2-(2-methylaminoethoxy)benzamide], the IC50 in the experiment with MDA-MB-231 (setting [1]) turned out to be 3120 nM; with AsPC1 (setting [2]), 2050 nM; in the experiment on Panc-1 (setting [3]) it was 3090 nM; in the experiment with MCF-7 (setting [4]) it was 3150 nM. The “inhibition” value with MCF-7 is “significant inhibition”.
For `NCCCOc1ccc(Cl)cc1C(=O)Nc1ccc([N+](=O)[O-])cc1Cl` [HJC-3-8, 2-(3-Aminopropoxy)-5-chloro-N-(2-chloro-4-nitrophenyl)benzamide], the IC50 came to 2610 nM in the experiment on MDA-MB-231 (setting [1]), 4200 nM in the experiment on AsPC1 (setting [2]), 3110 nM with Panc-1 (setting [3]) and 3110 nM in the experiment with MCF-7 (setting [4]). In addition, in the experiment on MCF-7, the “inhibition” value is “significant inhibition”.
With `N#C/C(=C\c1cccc(Br)n1)C(=O)Nc1ccc2c(c1)S(=O)(=O)C=C2` [Compound 10], the IC50 was 1530 nM in the experiment on MDA-MB-231 (setting [5]), 1540 nM in the experiment on AsPC1 (setting [6]), 1640 nM with Panc-1 (setting [7]) and 3310 nM in the experiment on MCF-7 (setting [8]).
Turning to `C[C@H](NC(=O)c1cc(-c2ccccc2)nc2ccccc12)c1ccccc1` [Compound 8], the IC50 in the experiment with MDA-MB-231 (setting [5]) is 86000 nM; in the experiment on AsPC1 (setting [6]), above 10000 nM; in the experiment with Panc-1 (setting [7]), above 10000 nM; in the experiment with MCF-7 (setting [8]), 2240 nM.
`C[C@H](NC(=O)c1cc(Cl)ccc1O)c1ccccc1` [Compound 9]: the IC50 in the experiment with MDA-MB-231 (setting [5]) was 8880 nM; with AsPC1 (setting [6]) it was 7540 nM; in the experiment on Panc-1 (setting [7]), 8440 nM; with MCF-7 (setting [8]) it was 900 nM; in the experiment on MCF-7 (MCF7, Example 4 numbering, read-out: IC50 MCF-7 (Example 4)) it was 900 nM.
